Assay results taken from US20060165687A1, “Vaccine adjuvant” (DUKE UNIVERSITY, priority 2004, published 2006).

Columns and labels:
[1] = test system: Foxp3+, CD25+, CD4+ T-regulatory cells; test: T-regulatory recovery after depletion and treatment with TLR-ligands; conditions: for effect on thymopoeisis (suggested by day 10 spike in percent thymic T-reg): after T-regulatory depletion; for induction of T-regulatory recovery in the thymus and spleen: conclusion
[2] = test system: T regulatory phenotype cells; set-up: species or system non-human primate; conditions: in vivo

| Molecule | effect on thymopoeisis (suggested by day 10 spike in percent thymic T-reg) [1] | induction of T-regulatory recovery in the thymus and spleen [1] | percent Foxp3+, CD25+, CD4+ splenocytes versus untreated mice ([1]; day 10, T-reg depleted mice) | T-regulatory recovery in the spleen ([1]; day 10, summary) | percent Foxp3+, CD25+, CD4+ splenocytes versus untreated mice ([1]; day 17, T-reg depleted mice) | T-reg recovery in the thymus ([1]; day 17, summary) | T-regulatory recovery in the spleen ([1]; day 17, summary) | T-regulatory recovery in the thymus ([1]; day 10, summary) | time of maximum depletion of % and number of T regulatory phenotype cells [2] [weeks] | time until which depletion lasted [2] [weeks] |
| --- | --- | --- | --- | --- | --- | --- | --- | --- | --- | --- |
| Poly (I:C) [TLR-3 ligand] | have an effect on thymopoeisis | able to induce T-regulatory recovery | significantly higher levels | accelerated | significantly increased levels | greater | accelerated | – | – | – |
| C=CCn1c(=O)n([C@@H]2O[C@H](CO)[C@@H](O)[C@H]2O)c2nc(N)[nH]c(=O)c21 [TLR-7 ligand, loxoribine] | have an effect on thymopoeisis | able to induce T-regulatory recovery | – | – | significantly increased levels | – | accelerated | accelerated | – | – |
| flagellin [TLR-5 ligand] | no effect | – | – | – | – | – | – | – | – | – |
| daclizumab (antibody, chains of the INN, looked up, V domains shown) VH: QVQLVQSGAEVKKPGSSVKVSCKASGYTFTSYRMHWVRQAPGQGLEWIGYINPSTGYTEYNQKFKDKATITADESTNTAYMELSSLRSEDTAVYYCARGGGVFDYWGQGTLVTVSS VL: DIQMTQSPSTLSASVGDRVTITCSASSSISYMHWYQQKPGKAPKLLIYTTSNLASGVPARFSGSGSGTEFTLTISSLQPDDFATYYCHQRSTYPLTFGQGTKVEVK | – | – | – | – | – | – | – | – | 2 | 4 |
